According to article PMC4780864, “Family-wide Structural Analysis of Human Numb-Associated Protein Kinases” (Structure(London, England:1993), 2016):

Experiments:
Experiment in all cases: biochemical
[1] = biological target: T1, GAK (Homo sapiens, UniProt O14976); parameters: Thermal shift assay (DSF, SYPRO Orange), 2 uM kinase domain, mean delta Tm of triplicates versus DMSO; details: for ΔTm at 12.5 µM: read-out: GAK; for GAK: 12.5 µM
T1 construct: catalytic domain-containing construct
T1 sequence (O14976 1-1311): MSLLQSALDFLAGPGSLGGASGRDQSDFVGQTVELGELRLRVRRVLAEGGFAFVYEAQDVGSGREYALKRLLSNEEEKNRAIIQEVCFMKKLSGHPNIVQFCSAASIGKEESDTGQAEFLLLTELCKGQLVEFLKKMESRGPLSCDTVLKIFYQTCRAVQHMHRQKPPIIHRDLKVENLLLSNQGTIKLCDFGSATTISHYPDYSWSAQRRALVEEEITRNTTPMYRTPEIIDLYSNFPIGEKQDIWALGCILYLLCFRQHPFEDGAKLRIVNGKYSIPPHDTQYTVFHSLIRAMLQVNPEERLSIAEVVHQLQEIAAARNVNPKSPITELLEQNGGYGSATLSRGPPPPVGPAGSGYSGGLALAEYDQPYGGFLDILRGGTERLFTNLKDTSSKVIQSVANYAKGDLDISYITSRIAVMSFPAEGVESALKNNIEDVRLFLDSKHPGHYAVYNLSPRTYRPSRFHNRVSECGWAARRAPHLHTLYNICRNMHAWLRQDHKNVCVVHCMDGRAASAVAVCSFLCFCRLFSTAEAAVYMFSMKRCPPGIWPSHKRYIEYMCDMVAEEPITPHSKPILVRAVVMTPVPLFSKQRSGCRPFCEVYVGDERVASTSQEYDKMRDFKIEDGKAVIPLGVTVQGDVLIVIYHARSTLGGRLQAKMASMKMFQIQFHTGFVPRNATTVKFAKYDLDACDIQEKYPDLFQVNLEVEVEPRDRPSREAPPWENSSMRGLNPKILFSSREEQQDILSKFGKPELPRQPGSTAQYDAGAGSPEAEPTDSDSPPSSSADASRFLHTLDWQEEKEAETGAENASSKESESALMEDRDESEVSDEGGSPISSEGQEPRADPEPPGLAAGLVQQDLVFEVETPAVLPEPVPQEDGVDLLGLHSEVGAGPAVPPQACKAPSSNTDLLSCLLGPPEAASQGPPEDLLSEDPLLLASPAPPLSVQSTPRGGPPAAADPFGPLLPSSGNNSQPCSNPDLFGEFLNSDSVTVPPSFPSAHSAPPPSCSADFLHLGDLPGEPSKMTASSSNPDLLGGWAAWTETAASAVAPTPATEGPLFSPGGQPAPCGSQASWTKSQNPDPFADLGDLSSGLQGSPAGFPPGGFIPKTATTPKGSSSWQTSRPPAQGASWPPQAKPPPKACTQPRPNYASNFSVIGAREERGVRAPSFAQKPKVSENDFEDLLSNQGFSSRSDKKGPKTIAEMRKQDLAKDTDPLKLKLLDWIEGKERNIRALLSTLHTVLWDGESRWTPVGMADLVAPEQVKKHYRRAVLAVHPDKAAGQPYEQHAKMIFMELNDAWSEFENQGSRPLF
Method: (§1) All measurements were performed in triplicate and mean values were reported for all compounds (Table S1). […] However, NAKs are often omitted from selectivity panels, including commercial screens.

[2] = biological target: T2, MPSK1 (Homo sapiens, UniProt O75716); parameters: Thermal shift assay (DSF, SYPRO Orange), 2 uM kinase domain, mean delta Tm of triplicates versus DMSO; details: read-out: MPSK1
T2 construct: gene STK16; catalytic domain-containing construct
Method: as §1

[3] = biological target: T3, BIKE (Homo sapiens, UniProt Q9NSY1); parameters: Thermal shift assay (DSF, SYPRO Orange), 2 uM kinase domain, mean delta Tm of triplicates versus DMSO; details: read-out: BIKE
T3 construct: gene BMP2K; catalytic domain-containing construct
Method: as §1

[4] = biological target: AAK1 (Homo sapiens, UniProt Q2M2I8); parameters: kinase domain; Thermal shift assay (DSF, SYPRO Orange), 2 uM kinase domain, mean delta Tm of triplicates versus DMSO; details: for ΔTm at 12.5 µM: read-out: AAK1
Method: as §1

T3 sequence (Q9NSY1 whole entry, the tested form may be a part): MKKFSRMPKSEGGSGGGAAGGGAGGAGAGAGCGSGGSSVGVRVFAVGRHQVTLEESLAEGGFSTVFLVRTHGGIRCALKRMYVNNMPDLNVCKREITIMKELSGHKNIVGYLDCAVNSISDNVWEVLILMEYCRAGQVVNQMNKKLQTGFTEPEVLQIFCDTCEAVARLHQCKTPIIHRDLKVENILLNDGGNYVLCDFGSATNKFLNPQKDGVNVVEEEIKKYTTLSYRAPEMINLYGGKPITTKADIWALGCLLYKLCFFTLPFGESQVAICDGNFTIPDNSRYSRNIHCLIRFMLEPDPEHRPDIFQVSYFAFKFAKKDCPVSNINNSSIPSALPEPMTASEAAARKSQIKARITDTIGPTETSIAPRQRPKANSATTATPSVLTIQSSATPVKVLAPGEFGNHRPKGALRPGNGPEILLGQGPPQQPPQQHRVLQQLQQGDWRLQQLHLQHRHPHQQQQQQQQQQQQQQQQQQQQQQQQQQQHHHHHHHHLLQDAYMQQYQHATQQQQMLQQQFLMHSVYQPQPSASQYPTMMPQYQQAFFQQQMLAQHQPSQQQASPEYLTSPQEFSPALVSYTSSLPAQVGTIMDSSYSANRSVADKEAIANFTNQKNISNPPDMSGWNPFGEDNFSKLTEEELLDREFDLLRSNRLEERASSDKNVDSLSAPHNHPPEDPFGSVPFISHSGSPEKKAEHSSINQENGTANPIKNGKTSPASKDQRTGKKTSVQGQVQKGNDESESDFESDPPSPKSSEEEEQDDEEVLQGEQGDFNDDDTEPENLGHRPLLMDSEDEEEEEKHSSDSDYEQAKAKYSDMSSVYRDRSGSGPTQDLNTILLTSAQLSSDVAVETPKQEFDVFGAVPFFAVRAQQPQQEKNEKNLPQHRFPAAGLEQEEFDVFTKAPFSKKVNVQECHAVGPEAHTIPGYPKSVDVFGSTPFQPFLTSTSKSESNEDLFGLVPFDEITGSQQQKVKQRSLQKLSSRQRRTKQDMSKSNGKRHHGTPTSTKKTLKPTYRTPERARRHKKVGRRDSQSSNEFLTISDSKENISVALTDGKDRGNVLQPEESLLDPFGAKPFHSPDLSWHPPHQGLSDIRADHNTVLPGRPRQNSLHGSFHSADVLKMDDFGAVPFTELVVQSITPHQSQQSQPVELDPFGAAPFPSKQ
T2 sequence (O75716 whole entry, the tested form may be a part): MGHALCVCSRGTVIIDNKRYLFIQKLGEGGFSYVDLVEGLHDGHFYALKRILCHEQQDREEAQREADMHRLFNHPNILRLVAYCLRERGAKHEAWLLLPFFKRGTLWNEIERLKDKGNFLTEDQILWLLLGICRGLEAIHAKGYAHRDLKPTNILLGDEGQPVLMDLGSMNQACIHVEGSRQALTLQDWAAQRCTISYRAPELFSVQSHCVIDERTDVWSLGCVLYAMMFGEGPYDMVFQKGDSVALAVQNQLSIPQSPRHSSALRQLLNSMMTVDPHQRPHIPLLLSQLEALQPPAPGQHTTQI
AAK1, sequence (Q2M2I8 27-365 limits assumed): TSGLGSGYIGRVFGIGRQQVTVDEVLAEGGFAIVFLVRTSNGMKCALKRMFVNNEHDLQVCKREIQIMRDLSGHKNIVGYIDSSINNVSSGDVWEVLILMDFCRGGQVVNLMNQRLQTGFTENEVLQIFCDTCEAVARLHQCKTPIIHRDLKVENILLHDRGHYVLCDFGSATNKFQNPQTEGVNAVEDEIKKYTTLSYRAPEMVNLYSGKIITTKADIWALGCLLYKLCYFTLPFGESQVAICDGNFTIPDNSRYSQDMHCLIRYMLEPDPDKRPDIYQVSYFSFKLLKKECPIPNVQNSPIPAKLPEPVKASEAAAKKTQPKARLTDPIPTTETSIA

SMILES | ΔTm at 12.5 µM [1] | ΔTm at 12.5 µM [2] | ΔTm at 12.5 µM [3] | ΔTm at 12.5 µM [4] | GAK [1] | AAK1 ([4]; 12.5 µM)
COc1cc2nccc(Oc3ccc(NC(=O)C4(C(=O)Nc5ccc(F)cc5)CC4)cc3)c2cc1OC [Cabozantinib] | 2.46 °C | 0.713 °C | 0.743 °C | 0.82 °C | – | –
CCc1cc2c(cc1N1CCC(N3CCOCC3)CC1)C(C)(C)c1[nH]c3cc(C#N)ccc3c1C2=O [Alectinib] | 6.7 °C | 1.29 °C | 0.673 °C | 0.613 °C | – | –
CC(C)NC[C@@H](C(=O)N1CCN(c2ncnc3c2[C@H](C)C[C@H]3O)CC1)c1ccc(Cl)cc1 [Ipatasertib] | -0.727 °C | 0.84 °C | 0.34 °C | 0.3 °C | – | –
CCN(CC)CCNC(=O)c1c(C)[nH]c(/C=C2\C(=O)Nc3ccc(F)cc32)c1C [Sunitinib] | – | 6.79 °C | 13.9 °C | – | 4.647 °C | 8.67 °C
CC(C)Oc1cc(Nc2nc(N[C@@H](C)c3ccc(F)cn3)ncc2Cl)n[nH]1 [AZ23] | 3.09 °C | 3.4 °C | 3.37 °C | 1.65 °C | – | –
CC(C)(C)Cn1c(N)nc2ccc(-c3[nH]c(C(C)(C)C)nc3-c3ccc(F)cc3)nc21 [Ralimetinib] | 9.03 °C | 1.32 °C | 1.12 °C | 0.397 °C | – | –
Nc1cc(C(F)(F)F)c(-c2cc(N3CCOCC3)nc(N3CCOCC3)n2)cn1 [Buparlisib] | -0.927 °C | 1.75 °C | 0.573 °C | 0.317 °C | – | –
CNc1nc(-c2ccc3c(N)n[nH]c3c2)cc(N2C[C@@H](C(=O)NC3CCCCC3)CC[C@H]2C)n1 [GSK2334470] | 1.69 °C | 0.883 °C | 5.35 °C | 4.98 °C | – | –
Cc1cnc(NC(=O)Nc2cc(Br)c(C)cc2OC[C@@H]2CNCCO2)cn1 [Rabusertib] | -0.263 °C | 2.49 °C | 3.04 °C | 1.55 °C | – | –
COc1ccc(Cl)c(Nc2nc3ccccc3nc2NS(=O)(=O)c2cccc(NC(=O)C(C)(C)N)c2)c1 [Pilaralisib] | -0.55 °C | 0.39 °C | 0.99 °C | 0.00667 °C | – | –
Cc1nc(Nc2n[nH]c3c2CN(C(=O)N[C@H](CN(C)C)c2ccccc2)C3(C)C)c2sccc2n1 [PF-03758309] | 4.73 °C | 8.65 °C | 10.6 °C | 5.65 °C | – | –
CN1CCN(c2nc(C3=C(c4c[nH]c5ccccc45)C(=O)NC3=O)c3ccccc3n2)CC1 [Sotrastaurin] | 0.62 °C | 1.8 °C | 3.16 °C | 1.63 °C | – | –
O=C(NC[C@H](O)CO)c1ccncc1Nc1ccc(I)cc1F [Pimasertib] | -0.59 °C | 0.313 °C | 0.36 °C | 0.0267 °C | – | –
CCOc1cc2ncc(C#N)c(Nc3ccc(OCc4ccccn4)c(Cl)c3)c2cc1NC(=O)/C=C/CN(C)C [Neratinib] | 2.52 °C | 0.927 °C | 1.97 °C | 0.98 °C | – | –
C=CCn1c(=O)c2cnc(Nc3ccc(N4CCN(C)CC4)cc3)nc2n1-c1cccc(C(C)(C)O)n1 [MK-1775] | 5.08 °C | 1.18 °C | 4.38 °C | 4.03 °C | – | –
Cc1nc(Nc2ncc(C(=O)Nc3c(C)cccc3Cl)s2)cc(N2CCN(CCO)CC2)n1 [Dasatinib] | – | 0.0333 °C | -0.673 °C | 0.363 °C | 0.14 °C | –

The next lines start with the values.

ΔTm at 12.5 µM [1] | ΔTm at 12.5 µM [2] | ΔTm at 12.5 µM [3] | ΔTm at 12.5 µM [4] | GAK [1] | AAK1 ([4]; 12.5 µM) | SMILES
0.847 °C | 3.51 °C | 1.55 °C | 1.4 °C | – | – | Cc1c(CN2CCN(C(=O)[C@H](C)O)CC2)sc2c(N3CCOCC3)nc(-c3cnc(N)nc3)nc12 [Apitolisib]
5.87 °C | 0.88 °C | 0.423 °C | 1.02 °C | – | – | CNC(=O)c1cc(Oc2ccc(NC(=O)Nc3ccc(Cl)c(C(F)(F)F)c3)c(F)c2)ccn1 [Regorafenib]
1.01 °C | 1.52 °C | 0.527 °C | 0.29 °C | – | – | CC[C@H](Nc1ncnc2[nH]cnc12)c1nc2cccc(F)c2c(=O)n1-c1ccccc1 [Idelalisib]
-0.293 °C | 1.76 °C | 0.397 °C | 0.0167 °C | – | – | C=CC(=O)N1CCC[C@@H](n2nc(-c3ccc(Oc4ccccc4)cc3)c3c(N)ncnc32)C1 [Ibrutinib]
-0.347 °C | 1.94 °C | 1.79 °C | 0.7 °C | – | – | Cn1cc(C2=C(c3cn(C4CCN(Cc5ccccn5)CC4)c4ccccc34)C(=O)NC2=O)c2ccccc21 [Enzastaurin]
-0.617 °C | 0.6 °C | 0.367 °C | 0.197 °C | – | – | Cn1cnc2c(F)c(Nc3ccc(Br)cc3F)c(C(=O)NOCCO)cc21 [MEK-162]
3.48 °C | 14.1 °C | 6.55 °C | 7 °C | – | – | COc1cc(Nc2ncc(F)c(Nc3ccc4c(n3)NC(=O)C(C)(C)O4)n2)cc(OC)c1OC [Tamatinib]
-0.113 °C | 0.55 °C | 0.843 °C | 0.223 °C | – | – | N#CC1(c2ccc(NC(=O)c3cccnc3NCc3ccncc3)cc2)CCCC1 [Apatinib]
-0.44 °C | 1.95 °C | 7.44 °C | 3.01 °C | – | – | C[C@@H](Oc1cc(-c2cnn(C3CCNCC3)c2)cnc1N)c1c(Cl)ccc(F)c1Cl [Crizotinib]
6.66 °C | 0.263 °C | 2.84 °C | 1.69 °C | – | – | COc1cc2ncnc(Nc3ccc(F)c(Cl)c3)c2cc1OCCCN1CCOCC1 [Gefitinib]
-0.593 °C | 1.43 °C | 0.623 °C | 0.327 °C | – | – | COc1ccc(-c2cc3c(C)nc(N)nc3n([C@H]3CC[C@H](OCCO)CC3)c2=O)cn1 [PF-04691502]
0.437 °C | 0.7 °C | 0.3 °C | 0.467 °C | – | – | CC1(C)CNc2cc(NC(=O)c3cccnc3NCc3ccncc3)ccc21 [Motesanib]
5.81 °C | 10.3 °C | 15.2 °C | 11.6 °C | – | – | C[C@@H](Oc1ccc2[nH]nc(/C=C/c3cnn(CCO)c3)c2c1)c1c(Cl)cncc1Cl [LY2874455]
1.67 °C | 1.16 °C | 1.13 °C | 1.7 °C | – | – | CS(=O)(=O)CCNCc1ccc(-c2ccc3ncnc(Nc4ccc(OCc5cccc(F)c5)c(Cl)c4)c3c2)o1 [Lapatinib]
0.82 °C | 0.147 °C | -1.36 °C | -0.183 °C | – | – | C=CCN(/C=C1/C(=O)O[C@H](COC)[C@@]2(C)C1=C(O)C(=O)C1=C2[C@H](OC(C)=O)C[C@]2(C)C(=O)CC[C@@H]12)CC=C [Sonolisib]
0.333 °C | 9.07 °C | 10.2 °C | 6.86 °C | – | – | Cc1cc(Nc2cc(CN3CCOCC3)c3nc(C)c(Cc4ccc(Cl)cc4F)n3n2)n[nH]1 [Gandotinib]
3.07 °C | 9.97 °C | 7.9 °C | 5 °C | – | – | Cc1ccc([N+](=O)[O-])cc1S(=O)(=O)N(C)/N=C/c1cnc2ccc(Br)cn12 [PIK-75]
